Results taken from patent publication US20250171459A1, “2-METHYL-4',5'-DIHYDROSPIRO[PIPERIDINE-4,7'-THIENO[2,3-C]PYRAN] DERIVATIVES AS INHIBITORS OF APOL1 AND METHODS OF USING SAME” (Vertex Pharmaceuticals Incorporated, priority 2022, published 2025).

Biological target: T1, APOL1 (Homo sapiens, UniProt O14791)
T1 sequence (O14791 1-398 S342G/I384M): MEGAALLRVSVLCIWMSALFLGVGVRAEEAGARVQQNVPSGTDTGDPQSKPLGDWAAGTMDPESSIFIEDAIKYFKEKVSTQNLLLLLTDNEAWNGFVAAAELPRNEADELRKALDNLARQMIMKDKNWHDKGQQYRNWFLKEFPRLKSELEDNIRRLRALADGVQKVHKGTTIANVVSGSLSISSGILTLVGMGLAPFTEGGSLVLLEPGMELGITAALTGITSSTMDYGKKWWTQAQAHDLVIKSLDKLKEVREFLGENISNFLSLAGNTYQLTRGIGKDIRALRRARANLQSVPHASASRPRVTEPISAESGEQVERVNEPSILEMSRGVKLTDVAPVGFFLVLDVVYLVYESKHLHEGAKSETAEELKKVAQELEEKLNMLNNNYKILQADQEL
Test: MultiTox-Fluor Multiplex Cytotoxicity Assay in tet-inducible APOL1 T-REx-HEK293 cells (cell rescue, ratio of dead to live cells)
Assay type: cell-based
Settings: tet-inducible transgenic APOL1 T-REx-HEK293 cell lines, 50 ng/mL tet, 24 hours; read-out: IP50 (i.e., IC50 for cell proliferation)
Procedure, shortened: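 T-REx-HEK293 cells with tet-inducible APOL1 were treated with compound (10 μM top, 10-point 3-fold dilution, duplicate) plus 50 ng/mL tetracycline for 24 h at 37° C, in DMEM with 2% tet-free FBS. MultiTox-Fluor protease signals gave a dead/live ratio, normalized to no tet (100% viability) and tet alone (0%).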

SMILES | IC50
CCc1cc2c(s1)CCO[C@@]21CCN(Cc2cn(C(C)c3nncn3CCOC)nn2)[C@@H](C)C1 (stereo partly shown) [Compound 163] | 0.5 to 1 µM
CCc1cc2c(s1)CCO[C@@]21CCN(C[C@H]2C[C@@H](NC(=O)OCCOCCOCCOC(=O)NCCOCCOCCCCCCCl)C2)[C@@H](C)C1 [Compound 386, 2-[2-[2-[[3-[[(2′S,4R)-2-ethyl-2′-methyl-spiro[6,7-dihydrothieno[3,2-c]pyran-4,4′-piperidine]-1′-yl]methyl]cyclobutyl]carbamoyloxy]ethoxy]ethoxy]ethyl N-[2-[2-(6-chlorohexoxy)ethoxy]ethyl]carbamate] | < 0.1 µM
CCc1cc2c(s1)CCOC21CCN(Cc2cn(C(C)C(=O)NCCC(F)(F)F)nn2)CC1 (stereo not shown) [Compound 1121] | 0.5 to 1 µM
CCc1cc2c(s1)CCO[C@@]21CCN(Cc2cn(Cc3cocn3)nn2)[C@@H](C)C1 [Compound 35] | 0.1 to 0.5 µM
CCc1cc2c(s1)C(C)COC21CCN(Cc2cn(CCS(C)(=O)=O)nn2)[C@@H](C)C1 (stereo partly shown) [Compound 537] | < 0.1 µM
CCc1cc2c(s1)CCOC21CCN(Cc2cnc(N[C@H]3CC[C@H](O)CC3)nc2)CC1 [Compound 1073, (1r,4r)-4-((5-((2′-ethyl-6′,7′-dihydrospiro[piperidine-4,4′-thieno[3,2-c]pyran]-1-yl)methyl)pyrimidin-2-yl)amino)cyclohexan-1-ol] | < 0.1 µM
CCc1cc2c(s1)CCO[C@@]21CCN(C[C@H]2C[C@@H](NC(=O)C3CCCC(C)(C)C3)C2)[C@@H](C)C1 (stereo partly shown) [Compound 312] | < 0.1 µM
CCc1cc2c(s1)CCO[C@@]21CCN(Cc2cn(-c3cncnc3)nn2)[C@@H](C)C1 [Compound 72] | < 0.1 µM
CCc1cc2c(s1)CCO[C@@]21CCN(Cc2cn(CC3CCCS3(=O)=O)nn2)[C@@H](C)C1 (stereo partly shown) [Compound 161] | < 0.1 µM
C[C@H]1C[C@@]2(CCN1CC1(O)CCS(=O)(=O)CC1)OCCc1cc(CC(F)F)sc12 [Compound 606] | 0.1 to 0.5 µM
CCN1CC[C@]2(C[C@@H]1C)OCC(O)c1cc(Cl)sc12 (stereo in doubt) [Compound 821, (2′S,4S,7R)-2-chloro-1′-ethyl-2′-methyl-spiro[4,5-dihydrothieno[2,3-c]pyran-7,4′-piperidine]-4-ol] | 0.1 to 0.5 µM
C[C@H]1C[C@@]2(CCN1C[C@@H](O)C(N)=O)OCCc1sc(Cl)cc12 [Compound 509, (2R)-3-[(2′S,4R)-2-chloro-2′-methyl-spiro[6,7-dihydrothieno[3,2-c]pyran-4,4′-piperidine]-1′-yl]-2-hydroxy-propanamide] | 0.1 to 0.5 µM
CCc1cc2c(s1)CCO[C@@]21CCN(C[C@H]2C[C@@H](NC(=O)CCS(C)(=O)=O)C2)[C@@H](C)C1 [Compound 356] | < 0.1 µM
C[C@H]1C[C@@]2(CCN1Cc1cnn(CCO)c1)OCCc1c2sc(C(F)(F)F)c1CO [Compound 875] | < 0.1 µM
CCc1cc2c(s1)CCO[C@@]21CCN(CC2CN(C(=O)C(C)(C)C)C2)[C@@H](C)C1 [Compound 457] | 0.5 to 1 µM
C[C@H]1C[C@@]2(CCN1Cc1cnn(CC(O)C(C)(C)O)c1)OCCc1c2sc(C(F)(F)F)c1CO (stereo partly shown) [Compound 960] | < 0.1 µM
C[C@H]1C[C@@]2(CCN1Cc1cnc(N3CCOCC3)nc1)OC[C@H](O)c1cc(Cl)sc12 [Compound 800] | < 0.1 µM
CCc1cc2c(s1)CCO[C@@]21CCN(Cc2cn(CC(C)(C)CO)nn2)[C@@H](C)C1 [Compound 135] | 0.1 to 0.5 µM
C[C@H]1C[C@@]2(CCN1Cc1cnn(CC(C)(CO)CO)c1)OCCc1cc(CC(F)F)sc12 [Compound 561, 2-[[4-[[(2′S, 7R)-2-(2,2-difluoroethyl)-2′-methyl-spiro[4,5-dihydrothieno[2,3-c]pyran-7,4′-piperidine]-1′-yl]methyl]pyrazol-1-yl]methyl]-2-methyl-propane-1,3-diol] | < 0.1 µM
C[C@H]1C[C@@]2(CCN1Cc1ccc(S(C)(=O)=O)c(F)c1)OCCc1cc(Cl)sc12 [Compound 669] | 0.1 to 0.5 µM
CCc1cc2c(s1)CCO[C@@]21CCN(CC2CN(C(=O)c3nnc(C)o3)C2)[C@@H](C)C1 [Compound 476] | < 0.1 µM
CCc1cc2c(s1)CCO[C@@]21CCN(Cc2cn(CC(=O)N3CCCC3)nn2)[C@@H](C)C1 [Compound 63] | < 0.1 µM
CCc1ccc(S(=O)(=O)N[C@H]2C[C@@H](CN3CC[C@]4(C[C@@H]3C)OCCc3sc(CC)cc34)C2)s1 [Compound 403] | < 0.1 µM
CCc1cc2c(s1)CCO[C@@]21CCN(CC2CN(C(=O)CCS(C)(=O)=O)C2)[C@@H](C)C1 [Compound 454] | 0.1 to 0.5 µM
C[C@H]1C[C@@]2(CCN1Cc1cnn(CC(O)CC3(C#N)CC3)c1)OCCc1c2sc(C(F)(F)F)c1CO (stereo partly shown) [Compound 950] | < 0.1 µM
C[C@H]1C[C@@]2(CCN1Cc1cnn(CC(O)c3ccc(F)cn3)c1)OCCc1c2sc(C(F)(F)F)c1CO (stereo partly shown) [Compound 937] | < 0.1 µM

SMILES | IC50
C[C@H]1C[C@@]2(CCN1Cc1cn(CCS(C)(=O)=O)nn1)OCCc1sc(C(F)F)cc12 [Compound 524, (2′S,4R)-2-(difluoromethyl)-2′-methyl-1′-[[1-(2-methylsulfonylethyl)triazol-4-yl]methyl]spiro[6,7-dihydrothieno[3,2-c]pyran-4,4′-piperidine]] | < 0.1 µM
C[C@H]1C[C@@]2(CCN1Cc1cnn(C3CS(=O)(=O)C3)c1)OCCc1c2sc(C(F)(F)F)c1CO [Compound 907] | < 0.1 µM
CCc1cc2c(s1)CCO[C@@]21CCN(Cc2cn([C@H]3CC[C@@H]3O)nn2)[C@@H](C)C1 [Compound 144] | 0.1 to 0.5 µM
CCc1cc2c(s1)CCO[C@@]21CCN(C[C@H]2C[C@@H](NC(=O)CS(=O)(=O)NC)C2)[C@@H](C)C1 [Compound 342] | < 0.1 µM
C[C@H]1C[C@@]2(CCN1C1CC(O)C1)OCCc1cc(CC(F)F)sc12 (stereo partly shown) [Compound 591] | 0.5 to 1 µM
CCc1cc2c(s1)CCOC21CCN(Cc2cn(CC(=O)NC)nn2)CC1 [Compound 1107] | 0.5 to 1 µM
C[C@H]1C[C@@]2(CCN1Cc1cnn(Cc3cccnc3)c1)OCCc1cc(Cl)sc12 [Compound 701] | < 0.1 µM
CCc1cc2c(s1)CCO[C@@]21CCN(C[C@H]2C[C@@H](NC(=O)c3cccc4c3OCCC4)C2)[C@@H](C)C1 [Compound 311] | 0.1 to 0.5 µM
CCc1cc2c(s1)CCO[C@@]21CCN(Cc2cnn(CCS(=O)(=O)NC)c2)[C@@H](C)C1 [Compound 264, 2-[4-[[(2′S,4R)-2-ethyl-2′-methyl-spiro[6,7-dihydrothieno[3,2-c]pyran-4,4′-piperidine]-1′-yl]methyl]pyrazol-1-yl]-N-methyl-ethanesulfonamide] | < 0.1 µM
Cc1cc2c(s1)CCO[C@@]21CCN(Cc2cn(CCS(C)(=O)=O)nn2)[C@@H](C)C1 [Compound 510, (2′S)-2,2′-dimethyl-1′-[[1-(2-methylsulfonylethyl)triazol-4-yl]methyl]spiro[6,7-dihydrothieno[3,2-c]pyran-4,4′-piperidine]] | < 0.1 µM
C[C@H]1C[C@@]2(CCN1Cc1ccc(C#N)nc1)OCCc1cc(Cl)sc12 [Compound 667] | 0.1 to 0.5 µM
CCc1cc2c(s1)CCOC21CCN(Cc2cn(C[C@H]3CC[C@@H](CO)O3)nn2)CC1 [Compound 1110] | 0.5 to 1 µM
C[C@H]1C[C@@]2(CCN1Cc1ccncc1F)OCCc1c2sc(Cl)c1CO [Compound 735] | 0.5 to 1 µM
CCc1cc2c(s1)CCO[C@@]21CCN(Cc2cn(CCCO)nn2)[C@@H](C)C1 [Compound 153] | < 0.1 µM
CCc1cc2c(s1)CCO[C@@]21CCN(CC2(O)CCS(=O)(=O)CC2)[C@@H](C)C1 [Compound 257] | 0.1 to 0.5 µM
CCc1cc2c(s1)CCO[C@@]21CCN(Cc2cnc(N[C@@H]3C(=O)NC[C@H]3O)nc2)[C@@H](C)C1 [Compound 220] | < 0.1 µM
COc1cncc(CN2CC[C@]3(C[C@@H]2C)OCCc2c3sc(Cl)c2CO)c1 [Compound 727] | 0.1 to 0.5 µM
CCc1cc2c(s1)CCO[C@@]21CCN(Cc2cn(CC(O)c3nccn3C)nn2)[C@@H](C)C1 (stereo partly shown) [Compound 69] | < 0.1 µM
CCc1cc2c(s1)CCO[C@@]21CCN(Cc2cn(CC(C)(CO)OC)nn2)[C@@H](C)C1 (stereo partly shown) [Compound 110] | 0.1 to 0.5 µM
CNC(=O)[C@@H](O)CN1CC[C@]2(C[C@@H]1C)OCCc1cc(CC(F)F)sc12 [Compound 612, (2S)-3-[(2′S, 7R)-2-(2,2-difluoroethyl)-2′-methyl-spiro[4,5-dihydrothieno[2,3-c]pyran-7,4′-piperidine]-1′-yl]-2-hydroxy-N-methyl-propanamide] | 0.1 to 0.5 µM
CCc1cc2c(s1)CCOC21CCN(Cc2ccc(C(=O)NCCC(=O)N3CCCC3)nc2)CC1 [Compound 1049] | < 0.1 µM
C[C@H]1C[C@@]2(CCN1Cc1cnn(CC(=O)NC3CC3)c1)OC[C@@H](O)c1cc(C(F)(F)F)sc12 [Compound 928] | < 0.1 µM
CCc1cc2c(s1)CCO[C@@]21CCN(CC2CN(C(=O)c3cnc(C#N)nc3)C2)[C@@H](C)C1 [Compound 458] | 0.1 to 0.5 µM
CCc1cc2c(s1)CCO[C@@]21CCN(CC2CN(C(=O)CCO)C2)[C@@H](C)C1 [Compound 447] | 0.1 to 0.5 µM
CCc1cc2c(s1)CCO[C@@]21CCN(CC(O)CO)[C@@H](C)C1 (stereo partly shown) [Compound 282] | 0.5 to 1 µM
C[C@H]1C[C@@]2(CCN1Cc1cn[nH]c1)OC[C@@H](O)c1cc(C(F)(F)F)sc12 [Compound 874, (2′S,4S,7R)-2′-methyl-1′-(1H-pyrazol-4-ylmethyl)-2-(trifluoromethyl)spiro[4,5-dihydrothieno[2,3-c]pyran-7,4′-piperidine]-4-ol] | < 0.1 µM
